For 8 compounds, GI50 and TGI results are on record in PubChem BioAssay (NCI).

Some test systems named below: SF-268 CNS; KM12 colon; TK-10 renal; SNB-75 CNS; SF-295 CNS; IGROV1 ovarian; DU-145 prostate; NCI-H460 lung; MOLT-4 leukemia; HOP-62 NSCLC.
Holding throughout (experiment): DTP human tumour cell line panel, 48 h

Several values for one entry are separate records, joined by “and”; a condition that tells them apart may be missing. Equal entries are not always repeated.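 Growth conditions: 96-well plates. Treatment: test compound, 48 hours, 5 concentrations. Analysis: linear interpolation between bracketing concentrations; unreached endpoints set to highest concentration. GI50 marks 50% less growth. TGI: concentration producing complete growth inhibition.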 Some results are limits rather than exact numbers.

Regarding `COc1ccc(C2c3c(-c4ccccc4)nn(-c4ccccc4)c3Oc3ncn4nc(CC#N)nc4c32)cc1OC` (configuration not stated), the GI50 (commonly the concentration that inhibits growth by half) was 16.6 µM and 3.29 µM with SF-268 CNS; 78.2 µM and > 22.1 µM in the experiment with KM12 colon; 27.8 µM and 3.31 µM in the experiment on TK-10 renal; 16.8 µM and 5.81 µM with IGROV1 ovarian. The TGI – broadly, the concentration at which net growth stops – in the experiment on SF-268 CNS was 42.5 µM and > 36.1 µM; with KM12 colon, above 100 µM; in the experiment with TK-10 renal, > 100 µM and 14.6 µM; in the experiment on SNB-75 CNS it was > 100 µM and 12.2 µM; in the experiment on SF-295 CNS, above 100 µM; in the experiment with IGROV1 ovarian, 41.7 µM and > 47 µM. Also, the TGI in the experiment on DU-145 prostate was above 100 µM; with NCI-H460 lung, > 100 µM and 46.7 µM; with MOLT-4 leukemia it was above 100 µM.
As to `Nc1c2ccccc2nc2ccccc12` (tested in a mixture with another compound), the GI50 in the experiment on SF-268 CNS was 2.13 µM; with KM12 colon it was 2.22 µM; in the experiment on TK-10 renal it was 1.97 µM; with HOP-62 NSCLC it was 1.54 µM; in the experiment on SNB-75 CNS, 3.18 µM; with SF-295 CNS, 2.1 µM. The GI50 with IGROV1 ovarian was 2.72 µM; in the experiment on DU-145 prostate, 2.38 µM; in the experiment on NCI-H460 lung, 2.12 µM; in the experiment on MOLT-4 leukemia, 2.32 µM. Moreover, the TGI with SF-268 CNS stood at 6.08 µM; in the experiment on KM12 colon it was 6.77 µM; in the experiment with TK-10 renal it was 5.34 µM; in the experiment on HOP-62 NSCLC, 4.01 µM; with SNB-75 CNS, 8.44 µM; in the experiment on SF-295 CNS, 10.5 µM. Moreover, the TGI was determined as 7.89 µM in the experiment with IGROV1 ovarian, 6.51 µM with DU-145 prostate, 8.99 µM with NCI-H460 lung and 13.1 µM in the experiment with MOLT-4 leukemia.
As for `CC#CC(=O)N1CC[C@@H](n2c(=O)n(-c3ccc(Oc4ccccc4)cc3)c3c(N)ncnc32)C1`, the GI50 in the experiment with SF-268 CNS was 30.3 µM; in the experiment on KM12 colon, 32.9 µM; in the experiment on TK-10 renal, 35 µM; in the experiment with HOP-62 NSCLC, 33.5 µM; in the experiment on SNB-75 CNS, 29.8 µM; with SF-295 CNS, 29.5 µM. The GI50 is 15.2 µM with IGROV1 ovarian, 33.5 µM in the experiment with DU-145 prostate, 33 µM with NCI-H460 lung and 10.2 µM in the experiment on MOLT-4 leukemia. Further, the TGI with SF-268 CNS, with KM12 colon, in the experiment with TK-10 renal, in the experiment with HOP-62 NSCLC, in the experiment on SNB-75 CNS and in the experiment with SF-295 CNS was above 100 µM in each case. Further, the TGI was 60.8 µM with IGROV1 ovarian, above 100 µM in the experiment with DU-145 prostate, above 100 µM in the experiment on NCI-H460 lung and 62.1 µM in the experiment on MOLT-4 leukemia.
In the case of `Fc1cccc(-c2[nH]nc3nc(Nc4cccnc4)sc23)c1`, the GI50 was above 100 µM in the experiment on SF-268 CNS; 0.631 µM with KM12 colon; 31.2 µM in the experiment on TK-10 renal; above 100 µM in the experiment with HOP-62 NSCLC; above 100 µM with SNB-75 CNS; 3.82 µM in the experiment on SF-295 CNS. Besides, the GI50 is 11.7 µM with IGROV1 ovarian, 4.71 µM in the experiment with DU-145 prostate, 2.38 µM with NCI-H460 lung and 9.13 µM in the experiment with MOLT-4 leukemia. The TGI in the experiment on SF-268 CNS, with KM12 colon, in the experiment on TK-10 renal, in the experiment on HOP-62 NSCLC, with SNB-75 CNS and in the experiment on SF-295 CNS was above 100 µM each time. Besides, the TGI in the experiment with IGROV1 ovarian is above 100 µM; with DU-145 prostate it was 24.8 µM; with NCI-H460 lung, above 100 µM; in the experiment with MOLT-4 leukemia, above 100 µM.
For `Cc1ccc2c(c1)C=CC(C#N)N2C(=O)Oc1ccccc1` (configuration not stated), the concentration for total growth inhibition (TGI) was above 100 µM with SF-268 CNS; 33.2 µM with KM12 colon; 94.2 µM in the experiment with TK-10 renal; above 100 µM in the experiment on SNB-75 CNS; above 100 µM in the experiment with IGROV1 ovarian; 42.7 µM in the experiment on DU-145 prostate. In addition, the TGI with NCI-H460 lung is above 100 µM; with MOLT-4 leukemia, 54.9 µM.
For the compound `CC(CN)[C@@H]1CC[C@]2(CO)CC[C@]3(C)[C@H](CC[C@@H]4[C@@]5(C)CCC(N)C(C)(C)[C@@H]5CC[C@]43C)[C@@H]12` (some centres not stated), the GI50 in the experiment on SF-268 CNS was 1.65 µM; in the experiment on KM12 colon, 1.74 µM; with TK-10 renal it was 1.69 µM; in the experiment on HOP-62 NSCLC, 1.84 µM; in the experiment with SNB-75 CNS it was 1.41 µM; with SF-295 CNS it was 1.74 µM. The GI50 with IGROV1 ovarian was 1.86 µM; in the experiment on DU-145 prostate it was 1.8 µM; with NCI-H460 lung, 1.84 µM. Moreover, the TGI in the experiment on SF-268 CNS came to 3.29 µM; in the experiment on KM12 colon, 3.34 µM; with TK-10 renal, 3.1 µM; in the experiment on HOP-62 NSCLC, 3.55 µM; in the experiment with SNB-75 CNS, 2.82 µM; in the experiment on SF-295 CNS, 3.41 µM. Further, the TGI with IGROV1 ovarian is 3.78 µM; in the experiment on DU-145 prostate, 3.3 µM; in the experiment on NCI-H460 lung, 3.49 µM.
For `N#Cc1nn(-c2cc(=O)[nH]c3ccc(Br)cc23)c(N)c1C#N`, the GI50 in the experiment on SF-268 CNS is 67 µM; with KM12 colon, above 100 µM; in the experiment on TK-10 renal it was above 100 µM; with HOP-62 NSCLC it was above 100 µM; in the experiment with SNB-75 CNS it was 57.1 µM; in the experiment with SF-295 CNS, above 100 µM. Besides, the GI50 in the experiment on IGROV1 ovarian was 37.9 µM; with DU-145 prostate, above 100 µM; in the experiment with NCI-H460 lung, above 100 µM; with MOLT-4 leukemia, above 100 µM. Further, the TGI in the experiment with SF-268 CNS, with KM12 colon, with TK-10 renal, in the experiment with HOP-62 NSCLC, in the experiment with SNB-75 CNS and in the experiment on SF-295 CNS was above 100 µM each time. For the same compound, the TGI in the experiment on IGROV1 ovarian, in the experiment with DU-145 prostate, in the experiment with NCI-H460 lung and in the experiment with MOLT-4 leukemia was above 100 µM throughout.
As to `COc1cc(/C=C2\C[C@H]3[C@@H]4CC=C5C[C@@H](OC(C)=O)CC[C@]5(C)[C@H]4CC[C@]3(C)[C@H]2OC(C)=O)ccc1OCCN1CCCCC1`, the GI50 was 35.7 µM in the experiment with SF-268 CNS; 14.4 µM in the experiment with KM12 colon; 10.5 µM in the experiment with TK-10 renal; 8.96 µM with HOP-62 NSCLC; 9.57 µM in the experiment with SF-295 CNS; 40 µM in the experiment with IGROV1 ovarian. The GI50 is 15.2 µM in the experiment with DU-145 prostate, 15.8 µM in the experiment on NCI-H460 lung and above 50 µM in the experiment with MOLT-4 leukemia. The TGI was above 50 µM with SF-268 CNS; 46.1 µM in the experiment with KM12 colon; 19.1 µM with TK-10 renal; 27.1 µM in the experiment on HOP-62 NSCLC; 24.1 µM in the experiment on SF-295 CNS; above 50 µM in the experiment with IGROV1 ovarian. Further, the TGI in the experiment on DU-145 prostate is 44.4 µM; in the experiment on NCI-H460 lung, above 50 µM; in the experiment with MOLT-4 leukemia it was above 50 µM.
